From patent publication US9938245B2 (THE TRUSTEES OF COLUMBIA UNIVERSITY IN THE CITY OF NEW YORK, priority 2014, dated 2018)

How the values were obtained:
HT1080 = assay: Concentration-dependent growth inhibition (alamar blue), HT1080; type: cell-based, human; conditions: Homo sapiens, HT-1080, 48 h, 2 days
Procedure: Assay plates were prepared by seeding either BJ-derived cell lines or HT-1080 cells at 1,500 cells per well concentration in 36 μL growth medium. Cells in the assay plates were treated with compounds by transferring 4 μL volume from the compound plate. The final concentration of compound was typically 30 μM to 0.9 nM in this 16-point, 2-fold dilution series. Assay plates were returned to the culture incubator and maintained for 2 days before adding alamar blue. […] Plates were incubated further for 16 hours to allow reduction of alamar blue, which results in the generation of red fluorescence. The fluorescence intensity was determined using a Victor 3 plate reader (Perkin Elmer) with a 535 nm excitation filter and a 590 nm emission filter.
Percent growth inhibition (% GI) was calculated from the following formula using the alamar blue fluorescence intensity values. % GI=100*(1−(X−N)/(P−N)) X, cells treated with lethal compound; N, no cells—growth media only; P, no lethal compound—cells only.
The concentration-dependent curves were generated using Prism software. Percent growth inhibition, measured using alamar blue is shown. Error bars indicate one standard deviation of triplicate data.
The results are shown in FIG. 17 and in Table 7 below.

system xc− = target: T1, system xc− (Homo sapiens, UniProt Q9UPY5); assay: Glutamate release assay (system xc− activity); conditions: read-out: IC50 glutamate release; CCF-STTG1 human astrocytoma cells, 2 hour incubation
T1 sequence (Q9UPY5 1-501): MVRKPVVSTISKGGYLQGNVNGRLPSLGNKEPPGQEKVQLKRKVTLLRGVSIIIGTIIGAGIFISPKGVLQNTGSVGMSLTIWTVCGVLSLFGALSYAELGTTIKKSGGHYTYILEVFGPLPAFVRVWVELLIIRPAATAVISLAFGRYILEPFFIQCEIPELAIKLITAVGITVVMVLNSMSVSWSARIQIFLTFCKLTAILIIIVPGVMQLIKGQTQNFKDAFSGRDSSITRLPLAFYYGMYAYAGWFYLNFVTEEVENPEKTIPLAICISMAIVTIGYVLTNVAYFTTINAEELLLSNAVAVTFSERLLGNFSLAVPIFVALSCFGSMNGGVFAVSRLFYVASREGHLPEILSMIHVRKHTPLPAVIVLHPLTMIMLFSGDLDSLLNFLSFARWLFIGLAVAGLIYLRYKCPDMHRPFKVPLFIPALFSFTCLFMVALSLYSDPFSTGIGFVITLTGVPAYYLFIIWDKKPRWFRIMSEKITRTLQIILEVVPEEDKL
T1 sequence (P08195 1-529 partner): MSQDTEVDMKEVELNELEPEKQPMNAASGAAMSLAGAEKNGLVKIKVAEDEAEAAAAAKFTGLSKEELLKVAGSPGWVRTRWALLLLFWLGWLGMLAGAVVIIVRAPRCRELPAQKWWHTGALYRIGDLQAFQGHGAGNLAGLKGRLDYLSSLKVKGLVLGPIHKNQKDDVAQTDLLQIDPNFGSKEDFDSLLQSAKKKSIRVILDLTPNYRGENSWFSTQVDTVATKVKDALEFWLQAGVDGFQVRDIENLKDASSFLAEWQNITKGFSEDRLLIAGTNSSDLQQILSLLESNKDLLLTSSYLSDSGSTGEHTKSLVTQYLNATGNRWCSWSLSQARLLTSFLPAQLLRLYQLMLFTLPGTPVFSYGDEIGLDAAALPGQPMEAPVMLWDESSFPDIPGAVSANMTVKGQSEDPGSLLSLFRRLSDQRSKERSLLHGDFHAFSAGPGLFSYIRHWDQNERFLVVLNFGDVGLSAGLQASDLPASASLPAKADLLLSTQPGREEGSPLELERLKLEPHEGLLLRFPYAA

[1] = Compound half-life in liver microsomes; conditions: for metabolic stability (in words): mouse liver microsomes; for half-life at 0.5 μM: mouse, liver microsomes, pH 7.4
[2] = test system: HT-1080 cells, U-2 OS cells; assay: Cell viability (alamar blue, 24 hours) with modulators of erastin lethality; type: cell-based, human; conditions: HT-1080 or U-2 OS cells
[3] = test system: siGPX4-induced cell death; assay: Suppression of siGPX4-induced cell death by ferroptosis inhibitors; type: cell-based; conditions: 10 μM U0126, 100 μM Vit. E, 100 μM DFOM, 50 μM ZIL
HT-1080 cells = assay: Cell death rescue by ALOX inhibitors and COX inhibitor; type: cell-based, human; conditions: inhibitor concentrations of Table 2
[4] = test system: xenograft tumors generated from BJeLR cells; type: in vivo
Text: . To test our hypothesis that IKE represented a candidate of choice for in vivo studies, we treated xenograft tumors generated from BJeLR cells in nude mice and with IKE compared to vehicle or doxorubicin treatments (as a positive growth suppression control). […] To confirm that growth suppression caused by IKE was due to ferroptotic cell death, we looked at levels of expression of PTGS2, a gene expression marker of ferroptosis. […]

lipid peroxides = assay: Lipid peroxide detection using BODIPY-C11; type: cell-based; conditions: BJeLR and other BJ-derived cells
GFP-ALOX5 = GFP-ALOX5 translocation assay; type: cell-based, human
cellular GSH = assay: GSH depletion assay; type: cell-based; conditions: BJeLR cells, lethal RSL3 dose
[5] = test system: BJeH, BJeHLT, BJeLR, and DRD; assay: RSL testing in 4 BJ-derived cell lines; type: cell-based, human
BJeLR = assay: Concentration-dependent growth inhibition (alamar blue), isogenic BJ cell lines; type: cell-based, human
[6] = Pharmacokinetic profile in mice; design: species or system mice (C57BL/6); conditions: C57BL/6, mouse, in vivo, oral, 20 mg/kg

## CC(C)Oc1ccc(C(=O)CF)cc1-n1c(CN2CCN(C(=O)COc3ccc(Cl)cc3)CC2)nc2ccccc2c1=O [FKE]
HT1080
  IC50: 61 nM
System xc−
  IC50: 40 nM
[1]
  metabolic stability (in words): medium to poor metabolic stability
  half-life at 0.5 μM: 4.7 min

## N[C@@H](CCC(=O)N[C@@H](CS)C(=O)NCC(=O)O)C(=O)O [GSH, reduced glutathione]
[2]
  effect on erastin-induced cell death: rescued cells from erastin lethality

## N#CC(=C(/N)Sc1ccccc1N)/C(C#N)=C(\N)Sc1ccccc1N [Compound U0126, U0126]
[3]
  rescue of siGPX4-induced cell death: rescued

## CC(c1cc2ccccc2s1)N(O)C(N)=O (stereo not drawn) [ZIL, Zileuton]
[3]
  rescue of siGPX4-induced cell death: rescued

## COc1ccc2c(c1)c(CC(=O)O)c(C)n2C(=O)c1ccc(Cl)cc1 [Indomethacin]
HT-1080 cells
  suppression of erastin-induced cell death: only minimally effective in suppressing erastin lethality

## Vitamin E [Vit. E]
[3]
  rescue of siGPX4-induced cell death: rescued

## CC(=O)c1ccc(OC(C)C)c(-n2c(CN3CCN(C(=O)COc4ccc(Cl)cc4)CC3)nc3ccccc3c2=O)c1 [KE]
HT1080
  IC50: 59 nM
System xc−
  IC50: 30 nM
[1]
  half-life at 0.5 μM: 3.8 min

## COc1cccc2c1C(=O)c1c(O)c3c(c(O)c1C2=O)C[C@@](O)(C(=O)CO)C[C@@H]3O[C@H]1C[C@H](N)[C@H](O)[C@H](C)O1 [doxorubicin, reference compound]
[4]; mouse, in vivo
  overt toxicity (body weight): No overt toxicity was observed
[4]; qPCR, xenograft
  increase in expression of CDKN1A relative to IKE-treated or vehicle-treated mice: 5 fold

## COC(=O)c1ccc([C@@H]2c3[nH]c4ccccc4c3C[C@@H](C(=O)OC)N2C(=O)CCl)cc1 [RSL3]
Lipid peroxides
  generation of lipid peroxides (BODIPY-C11): generation of lipid peroxides
GFP-ALOX5
  translocation of GFP-ALOX5 to the nuclear membrane: caused GFP-ALOX5 translocation to the nuclear membrane in BJeLR cells
Cellular GSH
  cellular GSH level: remained unaffected
[5]
  RSL phenotype (selective lethality in oncogenic-RAS cells): exhibited selective lethality in BJeLR cells

## lysophosphatidyl choline [lyso-PC]
[2]
  effect on erastin-induced cell death: modestly sensitized cells to erastin-induced cell death
[5]
  RSL phenotype (selective lethality in oncogenic-RAS cells): did not show differential cytotoxicity

## C=CCN1CCN(CC(=O)c2ccc(OC(C)C)c(-n3c(CN4CCN(C(=O)COc5ccc(Cl)cc5)CC4)nc4ccccc4c3=O)c2)CC1 [APKE]
BJeLR
  Selectivity (IC50BJeH/IC50BJeLR): 1.5
BJeLR; Homo sapiens, BJeLR, 48 h, 2 days, alamar blue
  IC50: 195 nM
System xc−
  IC50: 10 nM
[1]
  metabolic stability (in words): medium to poor metabolic stability
  half-life at 0.5 μM: 4.2 min

## CC(C)Oc1ccc(C(=O)CN2CCNCC2)cc1-n1c(CN2CCN(C(=O)COc3ccc(Cl)cc3)CC2)nc2ccccc2c1=O [PKE, piperazine ketone erastin]
HT1080
  IC50: 550 nM
[6]
  bioavailability: 0.75%
System xc−
  IC50: 100 nM
[1]
  metabolic stability (in words): exceptionally high metabolic stability
  half-life at 0.5 μM: > 90 min
